Target: T1, Progesterone receptor (Homo sapiens, UniProt P06401)
T1 sequence (P06401 whole entry): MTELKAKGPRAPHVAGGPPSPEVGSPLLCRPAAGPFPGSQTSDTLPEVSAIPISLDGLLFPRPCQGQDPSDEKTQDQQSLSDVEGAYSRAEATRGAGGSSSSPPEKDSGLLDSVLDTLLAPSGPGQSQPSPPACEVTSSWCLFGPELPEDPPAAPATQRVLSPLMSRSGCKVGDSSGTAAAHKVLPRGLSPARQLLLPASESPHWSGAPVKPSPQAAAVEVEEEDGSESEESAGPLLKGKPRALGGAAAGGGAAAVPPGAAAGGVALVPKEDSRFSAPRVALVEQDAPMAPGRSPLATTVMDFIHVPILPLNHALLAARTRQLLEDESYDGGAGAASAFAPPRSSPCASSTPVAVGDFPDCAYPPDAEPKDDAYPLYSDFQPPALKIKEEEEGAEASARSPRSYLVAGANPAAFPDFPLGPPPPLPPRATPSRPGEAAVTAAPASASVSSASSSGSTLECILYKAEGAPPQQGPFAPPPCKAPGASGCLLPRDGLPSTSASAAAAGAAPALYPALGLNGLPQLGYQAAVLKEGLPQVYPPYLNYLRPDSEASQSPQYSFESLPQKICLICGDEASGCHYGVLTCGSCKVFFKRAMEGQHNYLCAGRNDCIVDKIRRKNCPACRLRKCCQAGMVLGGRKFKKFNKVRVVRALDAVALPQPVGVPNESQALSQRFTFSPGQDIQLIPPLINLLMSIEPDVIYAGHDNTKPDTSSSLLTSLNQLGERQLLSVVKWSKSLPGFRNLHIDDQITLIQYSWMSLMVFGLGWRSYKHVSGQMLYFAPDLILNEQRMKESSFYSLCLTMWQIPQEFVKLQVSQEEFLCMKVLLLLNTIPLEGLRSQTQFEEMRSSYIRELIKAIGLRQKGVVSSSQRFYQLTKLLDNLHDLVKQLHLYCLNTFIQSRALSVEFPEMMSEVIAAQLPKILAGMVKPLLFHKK
Experiment: Progesterone Receptor Binding Assay
Conditions: 22 °C

SMILES: C[C@]12CCC(=O)C=C1CCC1C2CC[C@@]2(C)C1CC[C@@H]2C(=O)COCCCCCCNC(=S)Nc1ccc(CC2C[N+]34CC[N+]56CC[N+]78CC[N+]29CC(=O)[O][Gd-5]5739([O]C(=O)C6)([O]C(=O)C8)[O]C(=O)C4)cc1 (some centres not stated) [Steroid-Gd (III) conjugate, 3]
- IC50: 860 nM

SMILES: C[C@]12CCC(=O)C=C1CCC1C2CC[C@@]2(C)C1CC[C@@H]2C(=O)COCCCCCC[N+]12CC[N+]34CC[N+]56CC[N+]7(CC1)CC(=O)[O][Gd-4]2375([O]C(=O)C4)[O]C(=O)C6 (some centres not stated) [Steroid-Gd (III) conjugate, 2]
- IC50: 460 nM

— BindingDB's records for doi:10.1016/j.chembiol.2007.06.006 (Northwestern University, 2007)
